Drawing on patent US11912668B2, “GCN2 and perk kinase inhibitors and methods of use thereof” (Deciphera Pharmaceuticals, LLC, priority 2020, dated 2024), this text covers IC50 and EC50 for one compound.

Assay [1] has as its system ATF4 in HCT116 colorectal cancer cells. The assay can be described thus: HCT116 amino acid starved (-AA) ATF4 assay (Western blot). To be noted: Homo sapiens, HCT-116, 4 h. Format: cell-based. A digest of the protocol: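 HCT116 cells switched to amino-acid-free EBSS (10% dialyzed FBS, 5.5 mM glucose, vitamins) with serial compound dilutions for 4 h at 37° C. Lysates Western blotted for phospho-GCN2 (Thr899), total GCN2, ATF4 and beta-actin; IC50 values derived from quantified bands.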

The target in assay [2] is PERK oligomers in HEK-293 cells (Homo sapiens (Human), UniProt Q9NZJ5). The assay can be described thus: Detection of PERK oligomerization using NanoBRET. The following applies: read-out: EC50 of stimulation of the formation of PERK oligomers. Format: cell-based. The procedure: Constructs for BRET were built using the NanoBRET™ Flexi® PPI Starter System (Promega, Madison, WI). The full-length PERK ORF was obtained from Genscript (Piscataway, NJ). HEK-293 cells (catalog #CRL-1573) were obtained from the American Type Culture Collection (ATTC, Manassas, VA). Cells were grown in MEM medium supplemented with 10% heat-inactivated fetal bovine serum (Invitrogen, Carlsbad, CA) and 1% Penicillin/Streptomycin/L-Glutamine at 37° C., 5% CO2, and 95% humidity. For BRET assays, cells were seeded at a density of 40,000 cells/mL in culture medium in 6-well plates and allowed to attach and recover. Cells were transfected with C-terminally tagged PERK-NLuc and C-terminally tagged PERK-Halo using Lipofectamine LTX (Thermo, Waltham, MA) and allowed to express proteins overnight at 37° C., 5% CO2, and 95% humidity. Cells were then detached from culture dishes using 0.05% trypsin-EDTA, collected, and diluted in assay medium consisting of Opti-MEM® I Reduced Serum Medium supplemented with 4% FBS (Thermo) to 22,000 cells/mL. Cells were dispensed into 96-well cell culture plates and HaloTag® NanoBRET™ 618 Ligand (Promega) was added to a final concentration of 100 nM. […] Donor ([…]) and acceptor (618) emissions were measured on a Synergy Neo2 Multi-Mode Reader (BioTek, Winooski, VT) within 10 min of substrate addition. […]
Chain of PERK oligomers in HEK-293 cells (Q9NZJ5 30-1116): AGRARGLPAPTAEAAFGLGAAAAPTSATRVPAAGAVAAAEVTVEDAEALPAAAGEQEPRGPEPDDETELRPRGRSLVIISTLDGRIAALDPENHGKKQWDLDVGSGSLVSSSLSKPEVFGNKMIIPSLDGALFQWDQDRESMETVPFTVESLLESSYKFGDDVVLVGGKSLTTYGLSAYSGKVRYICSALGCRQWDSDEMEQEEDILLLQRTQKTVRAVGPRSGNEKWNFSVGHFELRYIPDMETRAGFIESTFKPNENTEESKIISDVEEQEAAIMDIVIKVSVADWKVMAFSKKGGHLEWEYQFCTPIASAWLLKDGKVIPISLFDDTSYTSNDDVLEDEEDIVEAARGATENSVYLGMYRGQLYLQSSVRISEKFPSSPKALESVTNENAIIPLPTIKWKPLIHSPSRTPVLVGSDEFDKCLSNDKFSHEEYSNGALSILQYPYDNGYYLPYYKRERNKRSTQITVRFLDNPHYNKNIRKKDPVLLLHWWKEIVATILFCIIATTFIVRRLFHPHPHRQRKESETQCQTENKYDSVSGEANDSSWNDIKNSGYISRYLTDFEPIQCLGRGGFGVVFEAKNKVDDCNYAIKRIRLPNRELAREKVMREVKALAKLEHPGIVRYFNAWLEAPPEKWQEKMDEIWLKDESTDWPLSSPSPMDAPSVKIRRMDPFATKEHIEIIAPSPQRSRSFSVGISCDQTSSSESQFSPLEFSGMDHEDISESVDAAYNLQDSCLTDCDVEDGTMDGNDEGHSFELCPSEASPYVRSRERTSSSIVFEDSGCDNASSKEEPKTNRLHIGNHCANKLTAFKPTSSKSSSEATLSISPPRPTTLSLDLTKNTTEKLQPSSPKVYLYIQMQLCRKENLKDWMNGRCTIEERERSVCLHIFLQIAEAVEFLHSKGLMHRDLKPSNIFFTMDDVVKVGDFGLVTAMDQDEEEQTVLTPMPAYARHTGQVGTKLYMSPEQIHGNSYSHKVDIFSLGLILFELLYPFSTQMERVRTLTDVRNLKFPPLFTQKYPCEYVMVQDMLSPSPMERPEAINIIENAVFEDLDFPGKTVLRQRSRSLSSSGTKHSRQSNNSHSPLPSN
Chain of PERK oligomers in HEK-293 cells (Q9NZJ5 30-1116): as above

Take `CNc1ncc2cc(-c3cccc(NS(=O)(=O)c4cc(Cl)cnc4OC)c3F)c(NC)nc2n1` [Compound 16]: the IC50 in assay [1] is at most 100 nM. Also, the EC50 in assay [2] turned out to be 270 nM.
